Assay results from US9096835B2, “DNA polymerase” (Medical Research Council, priority 2003, dated 2015).

Tests used:
Format in all cases: biochemical
[1] = Incorporation and extension of 5-nitroindole-5′-triphosphate; settings: 50° C., identical conditions as 4D11 and 5D4; data not shown
Protocol: (§1) 50 pmol of ^32P-labelled primer and 100 pmol of template in a volume of 44 μl were annealed in 1× Taq buffer. 4D11 or 5D4 polymerase as cell lysate (6 μl) was added and reactions were incubated at 50° C. for 15 minutes followed by addition of d5NITP (1 μl in total volume of 50 µL final dNTP concentration 40 μM). 8 μl samples were taken at various time points and added to 8 μl stop solution (7M urea, 100 mM EDTA containing xylene cyanol F). At the end of the time course the 4 native dNTPs were added (final concentration each dNTP 40 μM) and reactions incubated at 50° C. for a further 30 minutes.

[2] = test system: template containing 5-Nitroindole; assay: Primer extension opposite 5-nitroindole; settings: 50° C., cell lysate, identical conditions as 4D11 and 5D4; data not shown
Protocol: as §1, with “one dNTP” for “d5NITP”, “μl,” for “µL”, “remaining 3” for “4 native”, “minutes. Reaction samples were electrophoretically separated using 20% polyacrylamide gels at 25 W for 4 hours. The resultant gels were dried and scanned using a phosphorimager (Molecular Dynamics). Data was processed using the program ImageQuant (Molecular Dynamics).” for “minutes.”

phage λ DNA template = assay: Long PCR; settings: standard PCR conditions, no auxiliary polymerases or processivity factors
Protocol: A PCR assay was used to screen and rank clones. Briefly, clones were normalized for activity in PCR with matched primers 3, 4 and activity with mismatched primers 1 and 2 (1 μM each) determined at minimal cycle number (15-25 cycles). Extension capability for different mismatches was determined by the same assay using mismatch primers 2 (C•C mismatch), 5 (A•A mismatch), 6 (G•G mismatch), 7 (G•A mismatch) with matched primer 3 or primer 1 (A•G mismatch) with matched primer 4. Incorporation of unnatural substrates in 50 cycle PCR was carried out using standard conditions and 50 μM […] dNTPs (Promega) or 50 μM FITC-12-dATP (Perkin-Elmer), Rhodamine-5-dUTP (Perkin-Elmer) or Biotin-16-dUTP (Roche) with equivalent amounts of the other 3 dNTPs (all 50 μM). Long PCR was carried out using a two-step cycling protocol as described (22) 94° C. for 2 minutes, followed by 20 cycles of (94° C. 15 sec, 68° C. 30 min) using 5 ng of phage λ DNA (New England Biolabs) template and either primers 9, 10, 11 with primer 12 or primer 13 with primers 10, 14.

[3] = Catalytic efficiency kcat/Km
four mismatch primers = assay: PCR screen of clones with four mismatch primers; settings: 292 base pair product, 50 cycles of PCR
Protocol: The resultant clones from both CSR and CST were screened and ranked by PCR assay. Briefly, 2 μl of induced cells were added to 20 μl of PCR mix with the relevant 4 mismatch primers. Clones that produced a band were then subjected to further analysis and their activity on single, double and quadruple mismatch primers (single mismatch primers: 5′-CAGGAAACAGCTATGACAAAAATCTAGATAACGAGGGA-3′ (SEQ ID NO: 48) and 5′-GTAAAACGACGGCCAGTACCACCGAACTGCGGGTGACGCCAAGCC 3′ (SEQ ID NO: 49); double mismatch primers: CAGGAAACAGCTATGACTCGACAAAAATCTAGATAACGACC (SEQ ID NO: 50) and GTAAAACGACGGCCAGTTTATTAACCACCGAACTGC (SEQ ID NO: 51); four mismatch primers above.) was investigated. Polymerases that could extend all of these mismatches were found, though many polymerases could do only one of the mismatches and […].
The best first and second round clones were shuffled as described above and subjected to another round of CSR. The same two sets of mismatch primers with four mismatches at their 3′ end were used in the emulsion as two separate sources of selective pressure. This was then dealt with as above and the resultant clones were screened and ranked by PCR assay (as above). Once again, polymerases that could extend all of these mismatches were found. In particular, clones 3B5.

Molecule: wtTaq: Thermus aquaticus (Taq) wild type DNA polymerase [reference compound]
- incorporation and extension of d5NITP [1]: almost undetectable extension reactions
- extension opposite 5-nitroindole [2]: almost undetectable extension reactions
- size of targets amplified in long PCR (phage λ DNA template): ≤ 9 kb
- size of targets amplified in long PCR (phage λ DNA template; listed as WtTaq): ≤ 8.8 kb

B1: M1: Taq mutant G84A, D144G, K314R, E520G, F598L, A608V, E742G; SEQ ID NO: 1 (protein)
chain: MRGMLPLFEPKGRVLLVDGHHLAYRTFHALKGLTTSRGEPVQAVYGFAKSLLKALKEDGDAVIVVFDAKAPSFRHEAYGGYKAARAPTPEDFPRQLALIKELVDLLGLARLEVPGYEADDVLASLAKKAEKEGYEVRILTADKGLYQLLSDRIHVLHPEGYLITPAWLWEKYGLRPDQWADYRALTGDESDNLPGVKGIGEKTARKLLEEWGSLEALLKNLDRLKPAIREKILAHMDDLKLSWDLAKVRTDLPLEVDFAKRREPDRERLRAFLERLEFGSLLHEFGLLESPKALEEAPWPPPEGAFVGFVLSRREPMWADLLALAAAAGGRVHRAPEPYKALRDLKEARGLLAKDLSVLALREGLGLPPGDDPMLLAYLLDPSNTTPEGVARRYGGEWTEEAGERAALSERLFANLWGRLEGEERLLWLYREVERPLSAVLAHMEATGVRLDVAYLRALSLEVAEEIARLEAEVFRLAGHPFNLNSRDQLERVLFDELGLPAIGKTEKTGKRSTSAAVLGALREAHPIVEKILQYRELTKLKSTYIDPLPDLIHPRTGRLHTRFNQTATATGRLSSSDPNLQNIPVRTPLGQRIRRAFIAEEGWLLVVLDYSQIELRVLAHLSGDENLIRVFQEGRDIHTETASWMFGVPREAVDPLMRRAAKTINFGVLYGMSAHRLSQELAIPYEEAQAFIERYFQSFPKVRAWIEKTLEEGRRRGYVETLFGRRRYVPDLEARVKSVRGAAERMAFNMPVQGTAADLMKLAMVKLFPRLEEMGARMLLQVHDELVLEAPKERAEAVARLAKEVMEGVYPLAVPLEVEVGIGEDWLSAKE
modifications: Mutant Thermus aquaticus DNA polymerase
- kcat/Km relative to Taq wild type [3]: 14%

B2: 3A10: third round clone, abasic site bypass; SEQ ID NO: 86 (protein)
chain: MAMLPLFEPKGRVLLVDGHHLAYRTFFALKGLTTSRGEPVQVVYGFAKSLLKALKEDGYKAVFVVFDAKAPSFRHKAYEAYRAGRAPTPQDFPRQLALIKELVDLLGFTRLEVPGYEADDVLATLAKKAEKEGYEVRILTADRGLYQLVSDRVAVLHPEGHLITPEWLWEKYGLRPEQWVDFRALVGDPSDNLPGVKGIGEKTALKLLKEWGSLENLLKNLDRVKPENVREKIKAHLEDLRLSLELSRVRTDLPLEVDLAQGREPDREGLRAFLERLEFGSLLHEFGLLESPKALEEAPWPPPEGAFVGFVLSRKEPMWADLLALAAARGGRVHQAPEPYKALRDLKEARGLLAKDLSVLALREGLGLPPGDDPMLLAYLLDPSNTTPEGVARRYGGEWTEEAGERAALSERLFANLWGRLEGEERLLWLYREVERPLSAVLAHMETTGVRLDVAYLRALSLEVAEEIARLEAEVFRLAGRPFNLNSRDQLERVLFDELGLPAIGKTEKTGKRSTSAAVLEALREAHPIVEKILQYRELTKLKSTYIDPLPDLIHPRTGRLHTRFNQTATATGRLSSSDPNLQNIPVRTPLGQRIRRAFIAEEGWLLVVLDYSQMELRVLAHLSGDENLIRVFQEGKDIHTQTASWMFGVPPEAVDPLMRRAAKTVNFGVLYGMSAHRLSQELSIPYEEAVAFIERYFQSFPKVRAWIEKTLEEGRRRGYVETLFGRRRYVPDLNARMKSVRGAAERMAFNMPVQGTAADLMKLAMVKLFPRLREMGARMLLQVHDELLLEAPQARAEEVAALAKEAMEKAYPLAVPLEVEVGIGEDWLSAKE
modifications: Mutant Taq polymerase
- extension of primers containing four mismatches in PCR (four mismatch primers): cannot

B3: 3D1: third round clone, four mismatch extension; SEQ ID NO: 98 (protein)
chain: MAMLPLFEPKGRVLLVDGHHLAYRTFFALKGPTTSRGEPVQVVYGFAKSLLKALKEDGYKAVFVVFDAKAPSFRHKAYEAYRAGRAPTPEDFPRQLALIKELVDLLGFTRLEVPGYEADDVLATLAKKAEKEGYEVRILTADRGLYQLVSDRVAVLHPEGHLITPEWLWEKYGLRPEQWVDFRALVGDPSDNLPGVKGIGEKTALKLLKEWGSLENLLKNLDRVKPENVREKIKAHLEDLRLSLELSRVRTDLPLEVDLAQRREPDREGLRAFLERLEFGSLFHEFGLLESPKALEEAPWPPPEGAFVGFVLSRKEPMWADLLALAAARGGRVHRAPEPYKALRDLKEARGLLAKDLSVLALREGLGLPPGDDPMLLAYLLDPSNTTPEGVARRYGGEWTEEAGERAALSERLFANLWGRLEGEERLLWLYREVERPLSAVLAHMEATGVRLDVAYLRALSLEVAEEIARLEAEVFRLAGHPFNLNSRDQLEMVLFDELRLPALGKTQKTGKRSTSAAVLEALREAHPIVEKILQYRELTKLKSTYIDPLSDLIHPRTGRLHTRFNQTATATGRLSSSDPNLQNIPVRTPLGQRIRRAFIAEEGWLLVVLDYSQIELRVLAHLSGDENLIRVFQEGRDIHTETASWMFGVPREAVDPLMRRAAKTINFGVLYGMSAHRLSQELAIPYEEAQAFIERYFQSFPKVRAWIEKTLEEGRRRGYVETLFGRRRYVPDLEARVKSVREAAERMAFNMPVQGTAADLMKLAMVKLFPRLGETGARMLLQVHDELVLEAPKERAEAVARLAKEAMEGVYPLAVPLEVEVGIGEDWLSAKG
modifications: Mutant Taq polymerase
- extension of primers containing four mismatches in PCR (four mismatch primers): able to extend primers containing four mismatches
- extension of primers containing four mismatches in PCR (four mismatch primers; listed as D1): can also extend four mismatched primers in PCR
